Measured values from patent publication US20060135800A1, “2-Methylene-19,21-dinor-1alpha-hydroxy-bishomopregnacalciferol” (Wisconsin Alumni Research Foundation, priority 2004, published 2006).
Entries after “also recorded” stand apart in the source; their conditions may differ.

Columns and labels:
[1] = Serum calcium in adult rats (hypercalcemia); type: in vivo, rat; conditions: ip, FIG. 6
Experimental: (§1) Adult, female Sprague-Dawley rats were obtained from Harlan (Madison, Wis.).
(§2) Animals were randomly assigned to treatment groups (5 animals/group). All doses were administered intraperitoneally in 100 microliters of propylene glycol. Four to seven consecutive doses were given approximately 24 hours apart. Dosing was initiated after the animals had been allowed to acclimate for at least one week.
(§3) Both control and test articles were administered by intraperitoneal injection in 100 microliters for 4-7 consecutive days spaced approximately 24 hours apart. 1,25(OH)2D3 was given for 4 consecutive days, whereas, the test drugs were given for 7 consecutive days.
Twenty-four hours after the final dose, approximately 1 ml of blood was collected from the tail artery of each experimental animal. The blood was allowed to coagulate at room temperature and then centrifuged at 3000×g for 15 minutes. The serum was transferred to a polypropylene tube and stored frozen at −20° C. The level of calcium was determined by diluting the serum into 0.1% lanthum chloride and measuring the absorbance on an atomic absorption spectrophotometer (Perkin Elmer Model 3110, Shelton, Conn.).

[2] = Intestinal calcium transport (everted gut sac method); type: in vivo, rat; conditions: rats, ip; even at 100 times the dose of 1α,25-dihydroxyvitamin D3; FIG. 5
Experimental: (§4) Male, weanling Sprague-Dawley rats were placed on Diet 11 (0.47% Ca) diet +AEK for one week followed by Diet 11 (0.02% Ca) +AEK for 3 weeks. The rats were then switched to a diet containing 0.47% Ca for one week followed by two weeks on a diet containing 0.02% Ca. Dose administration began during the last week on 0.02% calcium diet. Four consecutive ip doses were given approximately 24 hours apart. Twenty-four hours after the last dose, blood was collected from the severed neck and the concentration of serum calcium determined as a measure of bone calcium mobilization. The first 10 cm of the intestine was also collected for intestinal calcium transport analysis using the everted gut sac method.

[3] = PTH suppression in adult rats; type: in vivo, rat; conditions: normal rats, ip, 7 consecutive days; FIG. 7
Experimental: as §1, §2, §3
Twenty-four hours after the final dose, blood was collected from the tail artery and the concentration of bioactive serum PTH was measured using the rat BioActive Intact PTH ELISA Kit from Immutopics, Inc. (San Clemente, Calif.).

[4] = biological target: T1, full-length recombinant rat vitamin D receptor (Rattus norvegicus, UniProt P13053); test: Vitamin D receptor binding, competition with [3H]-1,25-(OH)2-D3
T1 construct: Full-length recombinant rat receptor was expressed in E. coli; His tag (C); made in house; host or cells: E. coli BL21(DE3) Codon Plus RIL
T1 sequence (P13053 1-423): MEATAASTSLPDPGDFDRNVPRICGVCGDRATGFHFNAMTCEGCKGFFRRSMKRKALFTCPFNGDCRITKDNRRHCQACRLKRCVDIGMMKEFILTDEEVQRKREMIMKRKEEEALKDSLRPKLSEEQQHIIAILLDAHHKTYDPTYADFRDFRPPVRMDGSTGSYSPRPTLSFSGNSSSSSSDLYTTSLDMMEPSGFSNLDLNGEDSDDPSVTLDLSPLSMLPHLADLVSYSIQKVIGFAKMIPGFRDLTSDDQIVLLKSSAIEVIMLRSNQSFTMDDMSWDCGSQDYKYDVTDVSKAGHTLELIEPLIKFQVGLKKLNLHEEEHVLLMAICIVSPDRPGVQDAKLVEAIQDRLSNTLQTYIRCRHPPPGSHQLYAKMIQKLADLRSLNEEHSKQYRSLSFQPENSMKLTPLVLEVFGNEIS
Experimental: Full-length recombinant rat receptor was expressed in E. coli BL21(DE3) Codon Plus RIL cells and purified to homogeneity using two different column chromatography systems. The first system was a nickel affinity resin that utilizes the C-terminal histidine tag on this protein. The protein that was eluted from this resin was further purified using ion exchange chromatography (S-Sepharose Fast Flow). Aliquots of the purified protein were quick frozen in liquid nitrogen and stored at −80° C. until use. For use in binding assays, the protein was diluted in TEDK50 (50 mM Tris, 1.5 mM EDTA, pH 7.4, 5 mM DTT, 150 mM KCl) with 0.1% Chaps detergent. The receptor protein and ligand concentration was optimized such that no more than 20% of the added radiolabeled ligand was bound to the receptor.
Unlabeled ligands were dissolved in ethanol and the concentrations determined using UV spectrophotometry (1,25(OH)2D3: molar extinction coefficient=18,200 and λmax=265 nm; Analogs: molar extinction coefficient=42,000 and λmax=252 nm). Radiolabeled ligand (^3H-1,25(OH)2D3, ˜159 Ci/mmole) was added in ethanol at a final concentration of 1 nM.
Radiolabeled and unlabeled ligands were added to 100 mcl of the diluted protein at a final ethanol concentration of ≦10%, mixed and incubated overnight on ice to reach binding equilibrium. […] Total binding was determined from the tubes containing only radiolabeled ligand.

[5] = test system: 24-hydroxylase (24Ohase) gene promoter in ROS 17/2.8 (bone) cells; test: In vitro transcription assay (24-hydroxylase promoter luciferase reporter); type: cell-based; conditions: stably transfected Ros17/2.8 (bone) cells; FIG. 3
Experimental: Transcription activity was measured in ROS 17/2.8 (bone) cells that were stably transfected with a 24-hydroxylase (24Ohase) gene promoter upstream of a luciferase reporter gene (Arbour et al., 1998). Cells were given a range of doses. Sixteen hours after dosing the cells were harvested and luciferase activities were measured using a luminometer. RLU=relative luciferase units.

[6] = Bone calcium mobilization (serum calcium); type: in vivo, rat; conditions: rats, ip; even at 100 times the dose of 1α,25-dihydroxyvitamin D3; FIG. 4
Experimental: as §4

HL-60 cells = test: HL-60 differentiation (nitro blue tetrazolium reduction); type: cell-based, human
Experimental: The study drugs were dissolved in ethanol and the concentrations determined using UV spectrophotometry. Serial dilutions were prepared so that a range of drug concentrations could be tested without changing the final concentration of ethanol (≦0.2%) present in the cell cultures.
Human promyelocytic leukemia (HL60) cells were grown in RPMI-1640 medium containing 10% fetal bovine serum. The cells were incubated at 37° C. in the presence of 5% CO2.
HL60 cells were plated at 1.2×10^5 cells/ml. Eighteen hours after plating, cells in duplicate were treated with drug. Four days later, the cells were harvested and a nitro blue tetrazolium reduction assay was performed (Collins et al., 1979; J. Exp. Med. 149:969-974). The percentage of differentiated cells was determined by counting a total of 200 cells and recording the number that contained intracellular black-blue formazan deposits. Verification of differentiation to monocytic cells was determined by measuring phagocytic activity (data not shown).

Compound: C=C1[C@H](O)CC(=C/C=C2\CCC[C@]3(C)C(CCC)CC[C@@H]23)C[C@H]1O (stereo in doubt) [2-methylene-19,21-dinor-1α-hydroxy-bishomopregnacalciferol]
- raising serum calcium concentrations [1]: absence of raising serum calcium concentrations
- calcemic activity measured by intestinal calcium transport [2]: very low intestinal calcium transport activity; also recorded: no calcemic activity
- suppressing parathyroid hormone levels [3]: significant activity
- binding to the recombinant vitamin D receptor, times less active than 1α,25-dihydroxyvitamin D3 ([4]; relative to 1α,25-dihydroxyvitamin D3, FIG. 1): about 5 times
- binding to vitamin D receptors (in words) ([4]; summary statement): relatively high binding
- stimulating transcription of a reporter gene [5]: active
- calcemic activity measured by bone calcium mobilization [6]: very low ability to mobilize calcium from bone; also recorded: no calcemic activity
- inducing differentiation of HL-60 cells, times less active than 1α,25-dihydroxyvitamin D3 (HL-60 cells; relative to 1α,25-dihydroxyvitamin D3, FIG. 2): about 15 times
- cell differentiation activity (in words) (HL-60 cells; summary statement): relatively high cell differentiation activity
